Assay results published in patent US10913753B2, “Thienopyridine carboxamides as ubiquitin-specific protease inhibitors” (FORMA Therapeutics, Inc., priority 2016, dated 2021).

Experiments:
[1] = biological target: USP25 (Homo sapiens (Human), UniProt Q9UHP3); experiment: Ubiquitin-Rhodamine 110 Assay for USP25 Activity; assay type: biochemical
How it was run: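 USP25-His6 (75 pM) preincubated 30 min with compound (25 μM to 1.3 nM, 10-point 3-fold), then Ub-Rh110 added; 45 min at room temperature in pH 8.0 Tris buffer with BME, BGG, Triton X-100, stopped with 10 mM citric acid. Fluorescence 485/535 nm; % inhibition vs no-enzyme and DMSO controls, IC50 by 4-parameter logistic fit.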

[2] = biological target: USP28 (Homo sapiens (Human), UniProt Q96RU2); experiment: Ubiquitin-Rhodamine 110 Assay for USP28 Activity; assay type: biochemical
How it was run: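 Single-point screen at 10 μM, 90 min; follow-up dose-response (25 μM top, 3-fold) with 75 pM USP28 (1-1077)-TEV-6*His, 30 min compound preincubation, Ub-Rh110 substrate for 20 min at room temperature, citric acid stop. Buffer pH 8.0 Tris; fluorescence 485/535 nm; IC50 by 4-parameter logistic fit of % inhibition.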

USP25, sequence (Q9UHP3 whole entry): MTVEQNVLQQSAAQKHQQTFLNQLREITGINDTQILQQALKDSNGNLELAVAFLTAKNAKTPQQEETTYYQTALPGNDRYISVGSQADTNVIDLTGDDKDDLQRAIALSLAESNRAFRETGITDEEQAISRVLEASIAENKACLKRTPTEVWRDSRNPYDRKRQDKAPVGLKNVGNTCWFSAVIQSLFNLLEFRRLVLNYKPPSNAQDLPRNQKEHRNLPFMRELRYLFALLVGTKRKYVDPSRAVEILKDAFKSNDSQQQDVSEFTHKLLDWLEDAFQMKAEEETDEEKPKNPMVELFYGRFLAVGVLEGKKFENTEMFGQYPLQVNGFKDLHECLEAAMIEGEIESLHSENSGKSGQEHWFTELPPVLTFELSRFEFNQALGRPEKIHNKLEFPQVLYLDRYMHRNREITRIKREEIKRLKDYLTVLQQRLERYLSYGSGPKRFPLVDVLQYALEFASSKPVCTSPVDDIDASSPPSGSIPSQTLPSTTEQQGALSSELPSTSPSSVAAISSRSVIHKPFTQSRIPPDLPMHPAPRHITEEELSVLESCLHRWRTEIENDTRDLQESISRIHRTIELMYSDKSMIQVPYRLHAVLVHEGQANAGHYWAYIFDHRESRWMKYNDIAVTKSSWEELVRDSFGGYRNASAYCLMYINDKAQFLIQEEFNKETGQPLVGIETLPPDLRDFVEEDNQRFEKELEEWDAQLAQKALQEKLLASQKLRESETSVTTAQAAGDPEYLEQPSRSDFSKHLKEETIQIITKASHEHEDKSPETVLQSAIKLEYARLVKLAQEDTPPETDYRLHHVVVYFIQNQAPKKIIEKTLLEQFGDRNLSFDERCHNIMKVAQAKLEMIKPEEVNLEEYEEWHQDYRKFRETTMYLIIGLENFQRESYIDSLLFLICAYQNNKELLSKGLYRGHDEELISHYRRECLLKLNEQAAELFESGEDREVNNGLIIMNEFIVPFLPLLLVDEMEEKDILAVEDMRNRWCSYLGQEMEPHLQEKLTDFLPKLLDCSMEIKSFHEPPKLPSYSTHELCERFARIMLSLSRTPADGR
USP28, sequence (Q96RU2 whole entry): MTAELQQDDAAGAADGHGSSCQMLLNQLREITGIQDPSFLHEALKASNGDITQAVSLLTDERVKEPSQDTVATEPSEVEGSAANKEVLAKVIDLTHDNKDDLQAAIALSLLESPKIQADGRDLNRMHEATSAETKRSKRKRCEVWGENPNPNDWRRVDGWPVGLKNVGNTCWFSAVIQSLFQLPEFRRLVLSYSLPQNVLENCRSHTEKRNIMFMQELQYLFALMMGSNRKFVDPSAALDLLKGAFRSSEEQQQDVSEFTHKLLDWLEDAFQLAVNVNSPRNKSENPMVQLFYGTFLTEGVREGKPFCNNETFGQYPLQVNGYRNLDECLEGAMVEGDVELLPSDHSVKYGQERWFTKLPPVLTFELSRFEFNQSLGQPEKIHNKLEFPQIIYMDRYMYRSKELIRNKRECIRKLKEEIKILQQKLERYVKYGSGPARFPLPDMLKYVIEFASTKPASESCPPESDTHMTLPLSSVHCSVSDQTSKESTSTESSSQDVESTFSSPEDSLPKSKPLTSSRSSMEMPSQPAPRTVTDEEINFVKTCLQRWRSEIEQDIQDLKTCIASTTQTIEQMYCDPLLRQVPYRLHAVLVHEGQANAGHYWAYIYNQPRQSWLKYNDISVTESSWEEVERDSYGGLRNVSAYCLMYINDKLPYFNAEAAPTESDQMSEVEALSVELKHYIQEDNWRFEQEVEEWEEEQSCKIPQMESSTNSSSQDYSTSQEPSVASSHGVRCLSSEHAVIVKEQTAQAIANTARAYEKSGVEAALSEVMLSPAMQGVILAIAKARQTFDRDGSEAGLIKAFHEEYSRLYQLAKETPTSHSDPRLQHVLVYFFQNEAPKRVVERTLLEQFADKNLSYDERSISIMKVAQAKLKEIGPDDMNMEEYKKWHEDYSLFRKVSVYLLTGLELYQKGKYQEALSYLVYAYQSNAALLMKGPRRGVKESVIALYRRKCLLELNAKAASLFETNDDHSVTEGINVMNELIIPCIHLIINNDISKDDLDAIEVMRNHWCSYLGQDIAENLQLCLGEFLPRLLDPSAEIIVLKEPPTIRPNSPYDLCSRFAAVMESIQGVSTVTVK

Row | SMILES | IC50 [1] [nM] | IC50 [2] [nM]
1 | Cc1ccc2c(N)c(C(=O)NCCc3ccc(N4CC5CCC(C4)N5)c(F)c3)sc2n1 [Example I-88] | 200 to 2000 | < 200
2 | Cc1ccc2c(N)c(C(=O)NCCc3ccc(N4CCNCC4)cc3C)sc2n1 [Example I-89] | 200 to 2000 | < 200
3 | Cc1ccc2c(N)c(C(=O)NCCc3ccc4c(c3)CNCC4)sc2n1 [Example I-90] | 200 to 2000 | 200 to 2000
4 | Cc1ccc2c(N)c(C(=O)N[C@H]3C[C@@H](c4ccc(N5CCNCC5)cc4)C3)sc2n1 [Example I-91, cis-3-Amino-6-methyl-N-(3-(4-(piperazin-1-yl)phenyl)cyclobutyl)thieno [2,3-b]pyridine-2-carboxamide] | 200 to 2000 | 200 to 2000
5 | Cc1ccc2c(N)c(C(=O)N[C@H]3C[C@H](c4ccc(N5CCNCC5)cc4)C3)sc2n1 [Example I-92, trans-3-amino-6-methyl-N-(3-(4-(piperazin-1-yl)phenyl)cyclobutyl)thieno[2,3-b]pyridine-2-carboxamide] | 200 to 2000 | 200 to 2000
6 | Cc1ccc2c(N)c(C(=O)NCCc3cc(F)c(N4C[C@@H]5CCN[C@@H]5C4)cc3F)sc2n1 [Example I-95] | 200 to 2000 | < 200
7 | Cc1ccc2c(N)c(C(=O)NCCc3cc(F)c(N4C[C@H]5CCN[C@H]5C4)cc3F)sc2n1 [Example I-96] | 200 to 2000 | < 200
8 | Cc1nc2sc(C(=O)NC[C@@H](C)c3cc(F)c(N4CCNCC4)cc3F)c(N)c2cc1F [Example I-99] | 2000 to 10000 | 2000 to 10000
9 | Cc1nc2sc(C(=O)NC[C@H](C)c3cc(F)c(N4CCNCC4)cc3F)c(N)c2cc1F [Example I-100] | 2000 to 10000 | 200 to 2000
10 | Nc1nc2sc(C(=O)NCCc3ccc(N4CCNCC4)cc3)c(N)c2cc1F [Example I-115, 3,6-Diamino-5-fluoro-N-(4-(piperazin-1-yl)phenethyl)thieno[2,3-b]pyridine-2-carboxamide] | 200 to 2000 | < 200
11 | Cc1ccc2c(N)c(C(=O)NCCc3ccc(N4CCn5ccnc5C4)cc3)sc2n1 [Example I-116, 3-Amino-N-(4-(5,6-dihydroimidazo[1,2-a]pyrazin-7(8H)-yl)phenethyl)-6-methylthieno[2,3-b]pyridine-2-carboxamide] | 200 to 2000 | 200 to 2000
12 | Cc1ccc2c(N)c(C(=O)NCCc3ccc(N4CCN[C@@H](C)C4)cc3)sc2n1 [Example I-121, (S)-3-amino-6-methyl-N-(4-(3-methylpiperazin-1-yl)phenethyl)thieno[2,3-b]pyridine-2-carboxamide] | 200 to 2000 | 200 to 2000
13 | Cc1ccc2c(N)c(C(=O)NCCc3ccc(N4CCNCC4)c(-c4cnn(C(F)F)c4)c3)sc2n1 [Example I-152, 3-Amino-N-(3-(1-(difluoromethyl)-1H-pyrazol-4-yl)-4-(piperazin-1-yl)phenethyl)-6-methylthieno[2,3-b]pyridine-2-carboxamide] | 10000 to 25000 | 2000 to 10000
14 | Cc1ccc2c(N)c(C(=O)NCCc3ccc(N4CCNCC4)c(-c4ccc(C(=O)N5CCCC5)cc4)c3)sc2n1 [Example I-165] | 10000 to 25000 | 200 to 2000
15 | Cc1ccc2c(N)c(C(=O)NCCc3ccc(N4CCNCC4)c(-c4cnn(C5CCOCC5)c4)c3)sc2n1 [Example I-166] | 10000 to 25000 | 2000 to 10000
16 | Cc1ccc2c(N)c(C(=O)NCCc3ccc(N4CCNCC4)c(-c4ccccn4)c3)sc2n1 [Example I-168, 3-Amino-6-methyl-N-(4-(piperazin-1-yl)-3-(pyridin-2-yl)phenethyl)thieno[2,3-b]pyridine-2-carboxamide] | 10000 to 25000 | 2000 to 10000
17 | Cc1ccc2c(N)c(C(=O)NCCc3ccc(C4CCNCC4)c(F)c3)sc2n1 [Example I-169, 3-Amino-N-(3-fluoro-4-(piperidin-4-yl)phenethyl)-6-methylthieno[2,3-b]pyridine-2-carboxamide] | 200 to 2000 | < 200
18 | Cc1ccc2c(N)c(C(=O)NCCc3ccc(C(=O)O)cc3)sc2n1 [Example I-173, 4-(2-(3-Amino-6-methylthieno[2,3-b]pyridine-2-carboxamido)ethyl)benzoic acid] | 200 to 2000 | 200 to 2000
19 | Cc1ccc2c(N)c(C(=O)NCCc3ccc(CC(=O)O)cc3)sc2n1 [Example I-174] | 2000 to 10000 | 200 to 2000
20 | Cc1ccc2c(N)c(C(=O)NCCc3cccc(C(=O)O)c3)sc2n1 [Example I-175] | 2000 to 10000 | 2000 to 10000
21 | Cc1ccc2c(N)c(C(=O)NCCc3ccc4c(c3)C[C@H](C(=O)O)C4)sc2n1 [Example I-176] | 200 to 2000 | 200 to 2000
22 | Cc1ccc2c(N)c(C(=O)NCCc3ccc4c(c3)C[C@@H](C(=O)O)C4)sc2n1 [Example I-177] | 200 to 2000 | 200 to 2000
23 | Cc1ccc2c(N)c(C(=O)NCCc3cccc(CC(=O)O)c3)sc2n1 [Example I-178] | 2000 to 10000 | 2000 to 10000
24 | Nc1c(C(=O)NCCc2ccc(N3CCNCC3)c(Cl)c2)sc2nc(C(F)F)ccc12 [Example I-179, 3-Amino-N-(3-chloro-4-(piperazin-1-yl)phenethyl)-6-(difluoromethyl)thieno[2,3-b]pyridine-2-carboxamide] | 2000 to 10000 | 2000 to 10000
25 | Cc1ccc2c(N)c(C(=O)NCCc3ccc(N4CCNCC4)c(O)c3)sc2n1 [Example I-182, 3-amino-N-(3-hydroxy-4-(piperazin-1-yl)phenethyl)-6-methylthieno[2,3-b]pyridine-2-carboxamide] | 2000 to 10000 | 200 to 2000
